Laboratory results: patent publication US20250027130A1, “Nucleic Acid Synthesis and Sequencing Using Tethered Nucleoside Triphosphates” (The Regents of the University of California, priority 2022, published 2025)

Columns and labels:
[1] = test system: DH10B cells co-expressing MaFRSA; experiment: In vivo incorporation at position 200 of sfGFP, MaFRSA (intact mass, GluC LC-MS/MS); format: cell-based, E. coli; conditions: samples iv-v, DH10B, TB, 1 mM substrate
[2] = test system: DH10B ΔaspC ΔtyrB harboring pMega-MaFRSA; format: cell-based, E. coli; conditions: samples viii-ix, TB, 1 mM substrate

Compound | sfGFP containing variant 20 at position 200 [1] | sfGFP containing variant 20 at position 200 [2] | sfGFP containing variant 1 at position 200 [1] | sfGFP containing variant 2 at position 200 [1] | sfGFP containing variant 21 at position 200 [1] | sfGFP containing variant A at position 200 [1] | sfGFP containing variant F at position 200 [1] | sfGFP containing variant K at position 200 [1] | sfGFP containing variant Q at position 200 [1] | sfGFP containing variant W at position 200 [1] | sfGFP containing variant Y at position 200 [1] | sfGFP containing variant 1 at position 200 [2] | sfGFP containing variant 2 at position 200 [2] | sfGFP containing variant 21 at position 200 [2] | sfGFP containing variant A at position 200 [2] | sfGFP containing variant F at position 200 [2] | sfGFP containing variant K at position 200 [2] | sfGFP containing variant Q at position 200 [2] | sfGFP containing variant W at position 200 [2] | sfGFP containing variant Y at position 200 [2]
N[C@@H](Cc1cccc(C(F)(F)F)c1)C(=O)O [Sample 20] | 98.73% | 98.19% |  |  |  |  |  |  |  |  |  |  |  |  |  |  |  |  |  | 
N[C@@H](Cc1cccc(C(F)(F)F)c1)C(=O)O [Substrate 20] |  |  | 0.00% | 0.00% | 0.32% | 0.03% | 0.34% | 0.02% | 0.11% | 0.17% | 0.28% | 0.00% | 0.00% | 0.65% | 0.02% | 0.34% | 0.01% | 0.07% | 0.12% | 0.60%
